According to patent publication US10738056B2 (Aduro BioTech, Inc., priority 2017, dated 2020):

These compounds were tested against Human cGAS amino acids 155-522 (Homo sapiens (Human), UniProt Q8N884) (assay: cGAS biochemical activity assay (ATP remaining, Kinase-Glo Max luminescence)). Details: human cGAS 155-522, ATP remaining (Kinase-Glo Max); read-out: cGAS IC50.
Chain of Human cGAS amino acids 155-522 (Q8N884 157-522): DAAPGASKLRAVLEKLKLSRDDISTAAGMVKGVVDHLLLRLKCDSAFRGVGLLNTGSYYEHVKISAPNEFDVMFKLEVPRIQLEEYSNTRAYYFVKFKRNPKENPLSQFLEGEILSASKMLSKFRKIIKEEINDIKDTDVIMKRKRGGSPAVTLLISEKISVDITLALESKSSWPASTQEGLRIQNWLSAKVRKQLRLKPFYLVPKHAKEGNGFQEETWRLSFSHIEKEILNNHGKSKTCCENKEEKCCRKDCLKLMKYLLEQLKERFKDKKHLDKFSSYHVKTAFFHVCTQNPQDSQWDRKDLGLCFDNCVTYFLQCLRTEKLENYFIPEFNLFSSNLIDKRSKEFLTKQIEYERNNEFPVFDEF

Row | Structure (SMILES) | IC50
1 | CC(=O)N1CCC(c2nnc(-c3c(C)[nH]c4c(-c5ccccc5)c(C(F)(F)F)nn4c3=O)o2)CC1 [Compound D1054, 6-(5-(1-acetylpiperidin-4-yl)-1,3,4-oxadiazol-2-yl)-5-methyl-3-phenyl-2-(trifluoromethyl)pyrazolo[1,5-a]pyrimidin-7(4H)-one] | 20 to 250 µM
2 | Cc1[nH]c2c(-c3ccccc3)c(C(F)(F)F)nn2c(=O)c1-c1nnc(N2CCCC(CN)C2)o1 (centres unmarked) [Compound D1083, 6-(5-(3-(aminomethyl)piperidin-1-yl)-1,3,4-oxadiazol-2-yl)-5-methyl-3-phenyl-2-(trifluoromethyl)pyrazolo[1,5-a]pyrimidin-7(4H)-one] | 20 to 250 µM
3 | Cc1[nH]c2c(-c3ccccc3)c(C(F)(F)F)nn2c(=O)c1C(=O)Nc1cccnc1 [Compound A1005, 5-methyl-7-oxo-3-phenyl-N-(pyridin-3-yl)-2-(trifluoromethyl)-4,7-dihydropyrazolo[1,5-a]pyrimidine-6-carboxamide] | 20 to 250 µM
4 | Cc1[nH]c2c(-c3ccccc3)c(C(F)(F)F)nn2c(=O)c1-c1nnc(N)o1 [Compound D1075, 6-(5-amino-1,3,4-oxadiazol-2-yl)-5-methyl-3-phenyl-2-(trifluoromethyl)pyrazolo[1,5-a]pyrimidin-7(4H)-one] | 20 to 250 µM
5 | COc1cccc2oc(-c3c(C)[nH]c4c(-c5ccccc5)c(S(C)(=O)=O)nn4c3=O)nc12 [Compound C1068, 6-(4-methoxybenzo[d]oxazol-2-yl)-5-methyl-2-(methylsulfonyl)-3-phenylpyrazolo[1,5-a]pyrimidin-7(4H)-one] | 20 to 250 µM
6 | Cc1nnc(-c2c(C)[nH]c3c(-c4ccccc4)c(C(F)(F)F)nn3c2=O)o1 [Compound D1001, 5-methyl-6-(5-methyl-1,3,4-oxadiazol-2-yl)-3-phenyl-2-(trifluoromethyl)pyrazolo[1,5-a]pyrimidin-7(4H)-one] | 20 to 250 µM
7 | COc1cccc2oc(-c3c(C)[nH]c4c(-c5ccccn5)c(C(F)(F)F)nn4c3=O)nc12 [Compound C1127, 6-(4-methoxybenzo[d]oxazol-2-yl)-5-methyl-3-(pyridin-2-yl)-2-(trifluoromethyl)pyrazolo[1,5-a]pyrimidin-7(4H)-one] | 20 to 250 µM
8 | Cc1[nH]c2c(-c3ccccc3)c(C(F)(F)F)nn2c(=O)c1C(=O)N[C@H]1CCN(C(=O)OC(C)(C)C)C1 [Compound A1034, tert-butyl (S)-3-(5-methyl-7-oxo-3-phenyl-2-(trifluoromethyl)-4,7-dihydropyrazolo[1,5-a]pyrimidine-6-carboxamido)pyrrolidine-1-carboxylate] | > 250 µM
9 | COc1cccc2oc(-c3c(C(=O)N4CCCCC4)[nH]c4c(-c5ccccc5)c(C(F)(F)F)nn4c3=O)nc12 [Compound C1186, 6-(4-methoxybenzo[d]oxazol-2-yl)-3-phenyl-5-(piperidine-1-carbonyl)-2-(trifluoromethyl)pyrazolo[1,5-a]pyrimidin-7(4H)-one] | 20 to 250 µM
10 | Cc1[nH]c2c(-c3ccccc3)c(C(F)(F)F)nn2c(=O)c1-c1nnc(N(C)C2CCCCC2)o1 [Compound D1043, 6-(5-(cyclohexyl(methyl)amino)-1,3,4-oxadiazol-2-yl)-5-methyl-3-phenyl-2-(trifluoromethyl)pyrazolo[1,5-a]pyrimidin-7(4H)-one] | > 250 µM
11 | Cc1[nH]c2c(-c3ccccc3)c(C(F)(F)F)nn2c(=O)c1-c1nnc(C(=N)N)o1 [Compound D1074, 5-(5-methyl-7-oxo-3-phenyl-2-(trifluoromethyl)-4,7-dihydropyrazolo[1,5-a]pyrimidin-6-yl)-1,3,4-oxadiazole-2-carboximidamide] | < 20 µM
12 | COc1nccnc1NC(=O)c1c(C)[nH]c2c(-c3ccccc3)c(C(F)(F)F)nn2c1=O [Compound A1097, N-(3-methoxypyrazin-2-yl)-5-methyl-7-oxo-3-phenyl-2-(trifluoromethyl)-4,7-dihydropyrazolo[1,5-a]pyrimidine-6-carboxamide] | 20 to 250 µM
13 | COc1cccc2oc(-c3c(C)[nH]c4c(-c5ccccc5)c(N)nn4c3=O)nc12 [Compound C1063, 2-amino-6-(4-methoxybenzo[d]oxazol-2-yl)-5-methyl-3-phenylpyrazolo[1,5-a]pyrimidin-7(4H)-one] | > 250 µM
14 | Cc1[nH]c2c(C(C)C)c(C(F)(F)F)nn2c(=O)c1Cc1ccccc1 [Compound C1268, 6-benzyl-3-isopropyl-5-methyl-2-(trifluoromethyl)pyrazolo[1,5-a]pyrimidin-7(4H)-one] | > 250 µM
15 | Cc1[nH]c2c(-c3ccccc3)c(C(F)(F)F)nn2c(=O)c1-c1nnc(N2CCN(C)CC2)o1 [Compound D1058, 5-methyl-6-(5-(4-methylpiperazin-1-yl)-1,3,4-oxadiazol-2-yl)-3-phenyl-2-(trifluoromethyl)pyrazolo[1,5-a]pyrimidin-7(4H)-one] | 20 to 250 µM
16 | Cc1[nH]c2c(-c3ccccc3)c(C(F)(F)F)nn2c(=O)c1C(=O)N1CCCCC1 [Compound A1011, 5-methyl-3-phenyl-6-(piperidine-1-carbonyl)-2-(trifluoromethyl)pyrazolo[1,5-a]pyrimidin-7(4H)-one] | > 250 µM

Row | Structure (SMILES) | IC50
17 | Cc1[nH]c2c(-c3ccccc3)c(C(F)(F)F)nn2c(=O)c1C(=O)Nc1cccc(N(S(C)(=O)=O)S(C)(=O)=O)c1 [Compound A1046, 5-methyl-N-(3-(N-(methylsulfonyl)methylsulfonamido)phenyl)-7-oxo-3-phenyl-2-(trifluoromethyl)-4,7-dihydropyrazolo[1,5-a]pyrimidine-6-carboxamide] | 20 to 250 µM
18 | Cc1ccccc1NC(=O)c1c(C)[nH]c2c(-c3ccccc3)c(C(F)(F)F)nn2c1=O [Compound A1037, 5-methyl-7-oxo-3-phenyl-N-(o-tolyl)-2-(trifluoromethyl)-4,7-dihydropyrazolo[1,5-a]pyrimidine-6-carboxamide] | 20 to 250 µM
19 | Cc1[nH]c2c(-c3ccccc3)c(C(F)(F)F)nn2c(=O)c1-c1nc2cc(Cl)ccc2o1 [Compound C1028, 6-(5-chlorobenzo[d]oxazol-2-yl)-5-methyl-3-phenyl-2-(trifluoromethyl)pyrazolo[1,5-a]pyrimidin-7(4H)-one] | > 250 µM
20 | COc1cccc(NC(=O)c2c(C)[nH]c3c(-c4ccccc4)c(SC)nn3c2=O)c1 [Compound A1122, N-(3-methoxyphenyl)-5-methyl-2-(methylthio)-7-oxo-3-phenyl-4,7-dihydropyrazolo[1,5-a]pyrimidine-6-carboxamide] | 20 to 250 µM
21 | Cc1[nH]c2c(-c3ccccc3)c(C(F)(F)F)nn2c(=O)c1C(=O)N1CCCC1 [Compound A1009, 5-methyl-3-phenyl-6-(pyrrolidine-1-carbonyl)-2-(trifluoromethyl)pyrazolo[1,5-a]pyrimidin-7(4H)-one] | > 250 µM
22 | Cc1[nH]c2c(-c3ccccc3)c(C(F)(F)F)nn2c(=O)c1C(=O)Nc1ccn(C2CCCCC2)n1 [Compound A1041, N-(1-cyclohexyl-1H-pyrazol-3-yl)-5-methyl-7-oxo-3-phenyl-2-(trifluoromethyl)-4,7-dihydropyrazolo[1,5-a]pyrimidine-6-carboxamide] | 20 to 250 µM
23 | Cc1[nH]c2c(-c3ccccc3)c(C(F)(F)F)nn2c(=O)c1-c1nnc(N2CCCCC2CCN)o1 (centres unmarked) [Compound D1069, 6-(5-(2-(2-aminoethyl)piperidin-1-yl)-1,3,4-oxadiazol-2-yl)-5-methyl-3-phenyl-2-(trifluoromethyl)pyrazolo[1,5-a]pyrimidin-7(4H)-one] | 20 to 250 µM
24 | COc1c(F)cccc1NC(=O)c1c(C)[nH]c2c(-c3ccccc3)c(C(F)(F)F)nn2c1=O [Compound A1137, N-(3-fluoro-2-methoxyphenyl)-5-methyl-7-oxo-3-phenyl-2-(trifluoromethyl)-4,7-dihydropyrazolo[1,5-a]pyrimidine-6-carboxamide] | 20 to 250 µM
25 | COc1cccc2oc(-c3c(C(=O)N[C@H](CO)C(C)C)[nH]c4c(-c5ccccc5)c(C(F)(F)F)nn4c3=O)nc12 [Compound C1208, (S)-N-(1-hydroxy-3-methylbutan-2-yl)-6-(4-methoxybenzo[d]oxazol-2-yl)-7-oxo-3-phenyl-2-(trifluoromethyl)-4,7-dihydropyrazolo[1,5-a]pyrimidine-5-carboxamide] | 20 to 250 µM
26 | COc1c(Cl)cccc1NC(=O)c1c(C)[nH]c2c(-c3ccccc3)c(C(F)(F)F)nn2c1=O [Compound A1138, N-(3-chloro-2-methoxyphenyl)-5-methyl-7-oxo-3-phenyl-2-(trifluoromethyl)-4,7-dihydropyrazolo[1,5-a]pyrimidine-6-carboxamide] | 20 to 250 µM
27 | COc1cccc2oc(-c3c(C(C)=O)[nH]c4c(-c5ccccc5)c(C(F)(F)F)nn4c3=O)nc12 [Compound C1144, 5-acetyl-6-(4-methoxybenzo[d]oxazol-2-yl)-3-phenyl-2-(trifluoromethyl)pyrazolo[1,5-a]pyrimidin-7(4H)-one] | 20 to 250 µM
28 | Cc1[nH]c2c(-c3ccccc3)c(C(F)(F)F)nn2c(=O)c1N1Cc2ccc(N)cc2C1=O [Compound C1217, 6-(6-amino-1-oxoisoindolin-2-yl)-5-methyl-3-phenyl-2-(trifluoromethyl)pyrazolo[1,5-a]pyrimidin-7(4H)-one] | 20 to 250 µM
29 | Cc1[nH]c2c(-c3ccccc3)c(C(F)(F)F)nn2c(=O)c1-c1cccc(Cl)c1 [Compound C1004, 6-(3-chlorophenyl)-5-methyl-3-phenyl-2-(trifluoromethyl)pyrazolo[1,5-a]pyrimidin-7(4H)-one] | 20 to 250 µM
30 | Cc1[nH]c2c(-c3ccccc3)c(C#N)nn2c(=O)c1-c1ncco1 [Compound C1270, 5-methyl-6-(oxazol-2-yl)-7-oxo-3-phenyl-4,7-dihydropyrazolo[1,5-a]pyrimidine-2-carbonitrile] | < 20 µM
31 | Cc1[nH]c2c(-c3cccnc3)c(C(F)(F)F)nn2c(=O)c1-c1nc2c(o1)CCCC2 [Compound C1036, 5-methyl-3-(pyridin-3-yl)-6-(4,5,6,7-tetrahydrobenzo[d]oxazol-2-yl)-2-(trifluoromethyl)pyrazolo[1,5-a]pyrimidin-7(4H)-one] | > 250 µM
32 | Cc1[nH]c2c(-c3ccccc3)c(C(F)(F)F)nn2c(=O)c1C(=O)N[C@H]1CCNC1 [Compound A1035, (S)-5-methyl-7-oxo-3-phenyl-N-(pyrrolidin-3-yl)-2-(trifluoromethyl)-4,7-dihydropyrazolo[1,5-a]pyrimidine-6-carboxamide] | > 250 µM
